According to patent US6528535B2, “Bicyclic inhibitors of protein farnesyl transferase” (Warner-Lambert Company, priority 1997, dated 2003):
Counter-ions that a name gives are not always drawn. Like-named read-outs stand apart in the source and are kept apart here.

Biological target: T1, SF9 affinity purified rat FPT (Rattus norvegicus, UniProt Q02293+Q04631)
T1 construct: made in house; host or cells: Sf9 insect cells
Assay: PFT (farnesyl protein transferase) inhibitory activity, radiolabeled farnesyl pyrophosphate / biotinyl peptide bead assay
Type: biochemical
Settings: read-out: FTase, IC50
Experimental: The protein:farnesyl transferase (PFT) or farnesyl protein transferase (FPT) inhibitory activity of compounds of the present invention were assayed in HEPES buffer (pH 7.4) containing 5 mM potassium phosphate and 20 μM ZnCl2. The solution also contained 5 mM DTT (dithiothreitol), 5 mM MgCl2, and 0.1% PEG 8000. Assays were performed in 96 well plates (Wallec) and employed solutions composed of varying concentrations of a compound of the present invention in 10% DMSO (dimethylsulfoxide). Upon addition of both substrates, radiolabeled farnesyl pyrophosphate ([1^3H], specific activity 15-30 Ci/mmol, final concentration 134 nM) and (biotinyl)-Ahe-Thr-Lys-Cys-Val-Ile-Met ([3aS[3a alpha, 4 beta, 6a alpha]-hexahydro-2-oxo-1H-thieno[3,4-d]imidazole-5-pentanoic acid]-[7-aminoheptanoic acid]-Thr-Lys-Cys-Val-Ile-Met) (Ahe is 7-aminoheptanoic acid, Thr is threonine, Lys is lysine, Cys is cysteine, Val is valine, Ile is isoleucine, and Met is methionine) (final concentration 0.2 μM), the enzyme reaction was started by addition of SF9 affinity purified rat FPT. After incubation at 30° C. for 30 minutes, the reaction was terminated by diluting the reaction 2.5-fold with a stop buffer containing 1.5 M magnesium acetate, 0.2 M H3PO4, 0.5% BSA (bovine serum albumin), and strepavidin beads (Amersham) at a concentration of 1.3 mg/mL. After allowing the plate to settle for 30 minutes at room temperature, radioactivity was quantitated on a microbeta counter (Model 1450, Wallec). The assay was also carried out without 5 mM potassium phosphate.

[1] = Examples 56-74, parallel synthesis array: single test, values adjusted to account for the purity of the sample
[2] = average of two tests unless n is given in parentheses

Row | SMILES | IC50 [1] [nM] | IC50 [2] [nM]
1 | O=C1/C(=C/c2cc(Cl)cc(Cl)c2)CCc2cc(OCCn3ccnc3)ccc21 [Example 64, 2-[(E)-1-(3,5-Dichlorophenyl)methylidene]-6-[2-(1H-1-imidazolyl)ethoxy]-1,2,3,4tetrahydro-1-naphthalenone] | 570 | –
2 | CCN(CC)CCOc1ccc(C=C2CCc3cc(OCCn4ccnc4)ccc3C2=O)cc1 [Example 8, 2-[4-(2-Diethylamino-ethoxy)-benzylidene]-6-(2-imidazole-1-yl-ethoxy)-3,4-dihydro-2H-naphthalen-1-one] | – | 11900
3 | COc1ccccc1C=C1CCc2cc(OCCn3ccnc3)ccc2C1=O [Example 25, 6-(2-Imidazol-1-yl-ethoxy)-2-(2-methoxy-benzylidene)-3,4-dihydro-2H-naphthalen-1-one] | – | 2500
4 | O=C1CCCc2cc(OCCc3c[nH]cn3)ccc21 [Example 27, 6-[2-(1H-Imidazole4-yl)-ethoxy]-3,4-dihydro-2H-naphthalen-1-one, monohydrochloride] | – | 1790
5 | CN(C)c1ccc(/C=C2\CCc3cc(OCCn4ccnc4)ccc3C2=O)cc1 [Example 71] | 110 | –
6 | O=C1CCCc2cc(OC(Cn3ccnc3)c3ccccc3)ccc21 (centres unmarked) [Example 80, 6-[2-(1H-1-Imidazolyl)-1-phenylethoxy]-1,2,3,4-tetrahydro-1-naphthalenone] | – | 73
7 | O=C1C(=Cc2cccs2)CCc2cc(OC(Cn3ccnc3)c3ccccc3)ccc21 (centres unmarked) [Example 81, 6-(2-Imidazol-1-yl-1-phenyl-ethoxy)-2-thiophen-2-ylmethylene-3,4-dihydro-2H-naphthalen-1-one] | – | 37
8 | O=C1/C(=C/c2ccc(Cl)cc2)CCc2cc(OCCn3ccnc3)ccc21 [Example 58, 2-[(E)-1-(4-Chlorophenyl)methylidene]-6-[2-(1H-1-imidazolyl)ethoxy]-1,2,3,4-tetrahydro-1-naphthalenone] | 170 | –
9 | O=C1/C(=C/C2CCCCC2)CCc2cc(OCCn3ccnc3)ccc21 [Example 45, 2-[(E)-1-Cyclohexylmethylidene]-6-[2-(1H-1-imidazolyl)ethoxy]-1,2,3,4-tetrahydro-1-naphthalenone, hydrochloride] | – | 5800
10 | O=C1C(=Cc2ccccn2)CCc2cc(OCCn3ccnc3)ccc21 [Example 3, 6-(2-Imidazole-1-yl-ethoxy)-2-pyridin-2-ylmethylene-3,4-dihydro-2H-naphthalen-1-one] | – | 2400
11 | CC(C)(CNC(=O)CON=C1CCCc2cc(OCCn3ccnc3)ccc21)c1ccccc1 [Example 55, 2-[6-(2-Imidazol-1-yl-ethoxy)-3,4-dihydro-2H-naphthalen-1-ylideneaminooxy]-N-(2-methyl-2-phenyl-propyl)-acetamide] | – | 600
12 | NC(=O)c1ccc(C=C2CCc3cc(OCCc4c[nH]cn4)ccc3C2=O)cc1 [Example 33, 4-{6-[2-(1H-Imidazole-4-yl)-ethoxy]-1-oxo-3,4-dihydro-1H-naphthalen-2-ylidenemethyl}-benzamide, monohydrochloride] | – | 7300
13 | O=C1/C(=C/c2cccs2)COc2cc(OCCn3ccnc3)ccc21 [Example 52, 7-[2-(1H-1-Imidazolyl)ethoxy]-3-[(E)-1-(2-thienyl)methylidene]4-chromanone] | – | 220
14 | COc1ccc(/C=C2\CCc3cc(OCCn4ccnc4)ccc3C2=O)c(OC)c1OC [Example 69, 6-[2-(1H-1-Imidazolyl)ethoxy]-2-[(E)-1-(2,3,4-trimethoxyphenyl)methylidene]-1,2,3,4-tetrahydro-1-naphthalenone] | 1300 | –
15 | CC(=C1CCc2cc(OCCc3c[nH]cn3)ccc2C1=O)c1ccccc1 [Example 40, 6-[2-(1H-Imidazole-4-yl)-ethoxy]-2-(1-phenyl-ethylidene)-3,4-dihydro-2H-naphthalen-1-one] | – | 4700
16 | O=C1/C(=C/c2ccccc2Cl)CCc2cc(OCCn3ccnc3)ccc21 [Example 56, 2-[(E)-1-(2-Chlorophenyl)methylidene]-6-[2-(1H-1-imidazolyl)ethoxy]-1,2,3,4-tetrahydro-1-naphthalenone] | 360 | –
17 | O=C1/C(=C/c2cccc(Cl)c2Cl)CCc2cc(OCCn3ccnc3)ccc21 [Example 61, 2-[(E)-1-(2,3-Dichlorophenyl)methylidene]-6-[2-(1H-1-imidazolyl)ethoxy]-1,2,3,4-tetrahydro-1-naphthalenone] | 570 | –
18 | O=C1/C(=C/c2ccc(I)cc2)CCc2cc(OCCn3ccnc3)ccc21 [Example 70, 6-[2-(1H-1-Imidazolyl)ethoxy]-2-[(E)-1-(4-iodophenyl)methylidene]-1,2,3,4-tetrahydro-1-naphthalenone] | 320 | –

Row | SMILES | IC50 [1] [nM] | IC50 [2] [nM]
19 | COc1ccc(OC)c(/C=C2\CCc3cc(OCCn4ccnc4)ccc3C2=O)c1 [Example 65] | 630 | –
20 | O=C1/C(=C/c2cccc(Cl)c2)CCc2cc(OCCn3ccnc3)ccc21 [Example 57, 2-[(E)-1-(3-Chlorophenyl)methylidene]-6-[2-(1H-1-imidazolyl)ethoxy]-1,2,3,4-tetrahydro-1-naphthalenone] | 420 | –
21 | O=C1C(=Cc2ccc(Cl)s2)CCc2cc(OCCc3c[nH]cn3)ccc21 [Example 36, 2-(5-Chloro-thiophen-2-ylmethylene)-6-[2-(1H-imidazole-4-yl)-ethoxy]-3,4-dihydro-2H-naphthalen-1-one, hydrochloride] | – | 3500
22 | O=C1C(=Cc2ccccc2)CCc2cc(OCCn3ccnc3)ccc21 [Example 9, 2-Benzylidene-6-(2-imidazole-1-yl-ethoxy)-3,4-dihydro-2H-naphthalen-1-one] | – | 240
23 | O=C1/C(=C/c2ccccc2C(F)(F)F)CCc2cc(OCCn3ccnc3)ccc21 [Example 67, 6-[2-(1H-1-Imidazolyl)ethoxy]-2-(E)-1-[2-(trifluoromethyl)phenyl]methylidene-1,2,3,4-tetrahydro-1-naphthalenone] | 710 | –
24 | O=C(O)c1ccc(C=C2CCc3cc(OCCc4c[nH]cn4)ccc3C2=O)cc1 [Example 35, 4-{6-[2-(1H-Imidazole-4-yl)-ethoxy]-1-oxo-3,4-dihydro-1H-naphthalen-2-ylidenemethyl}-benzoic acid, ditrifluoroacetate] | – | 2000
25 | COc1cc(OC)c(/C=C2\CCc3cc(OCCn4ccnc4)ccc3C2=O)c(OC)c1 [Example 68, 6-[2-(1H-1-Imidazolyl)ethoxy]-2-[(E)-1-(2,4,6-trimethoxyphenyl)methylidene]-1,2,3,4-tetrahydro-1-naphthalenone] | 590 | –
26 | Cc1cccc(/C=C2\CCc3cc(OCCn4ccnc4)ccc3C2=O)c1 [Example 74, 6-[2-(1H-1-Imidazolyl)ethoxy]-2-[(E)-1-(3-methylphenyl)methylidene]-1,2,3,4-tetrahydro-1-naphthalenone] | 1890 | –
27 | O=C1/C(=C/c2ccc(F)cc2)CCc2cc(OCCn3ccnc3)ccc21 [Example 60, 2-[(E)-1-(4-Fluorophenyl)methylidene]-6-[2-(1H-1-imidazolyl)ethoxy]-1,2,3,4-tetrahydro-1-naphthalenone] | 180 | –
28 | CC(C)(C)c1ccc(/C=C2\CCc3cc(OCCn4ccnc4)ccc3C2=O)cc1 [Example 72, 2-(E)-1-[4-(tert-Butyl)phenyl]methylidene-6-[2-(1H-1-imidazolyl)ethoxy]-1,2,3,4-tetrahydro-1-naphthalenone] | 1200 | –
29 | COc1cccc(/C=C2\CCc3cc(OCCn4ccnc4)ccc3C2=O)c1 [Example 73, 6-[2-(1H-1-Imidazolyl)ethoxy]-2-[(E)-1-(3-methoxyphenyl)methylidene]-1,2,3,4-tetrahydro-1-naphthalenone] | 1140 | –
30 | O=C1/C(=C/c2ccc3c(c2)OCO3)CCc2cc(OCCn3ccnc3)ccc21 [Example 59, 2-[(E)-1-(1,3-Benzodioxol-5-yl)methylidene]-6-[2-(1H-1-imidazolyl)ethoxy]-1,2,3,4-tetrahydro-1-naphthalenone] | 210 | –
31 | O=C(CON=C1CCCc2cc(OCCn3ccnc3)ccc21)NCC1(c2ccccc2)CCC1 [Example 82, 2-[6-(2-Imidazol-1-yl-ethoxy)-3,4-dihydro-2H-naphthalen-1-ylideneaminooxy]-N-(1-phenyl-cyclobutylmethyl)-acetamide] | – | 420
32 | O=C1/C(=C/c2ccc(Cl)c(Cl)c2)CCc2cc(OCCn3ccnc3)ccc21 [Example 63, 2-[(E)-1-(3,4-Dichlorophenyl)methylidene]-6-[2-(1H-1-imidazolyl)ethoxy]-1,2,3,4-tetrahydro-1-naphthalenone] | 890 | –
33 | Cc1nccn1CCOc1ccc2c(c1)CCCC2=O [Example 2, 6-[2-(2-Methyl-imidazole-1-yl)-ethoxy]-3,4-dihydro-2H-naphthalen-1-one] | – | 8400
34 | O=C1CCCc2cc(OCCn3ccnc3)ccc21 [Example 1, 6-(2-Imidazole-1-yl-ethoxy)-3,4-dihydro-2H-naphthalen-1-one] | – | 2000
35 | COc1cccc(/C=C2\CCc3cc(OCCn4ccnc4)ccc3C2=O)c1OC [Example 66, 2-[(E)-1-(2,3-Dimethoxyphenyl)methylidene]-6-[2-(1H-1-imidazolyl)ethoxy]-1,2,3,4-tetrahydro-1-naphthalenone] | 1840 | –
